Data as given in publication PMC8373983, “Effect of salinity on the zinc(II) binding efficiency of siderophore functional groups and implications for salinity tolerance mechanisms in barley” (Scientific Reports, 2021).
Where “and” joins values, the source holds several entries; their conditions need not be identical. Equal values may be shown once. Blank lines part the entries; values can stand above or below the compound they belong to.

How the values were obtained:
[1] = Zinc(II)-ligand stability constants, potentiometric titration in NaCl; type: binding
Experimental: (§1) Potentiometric measurements were carried out at T = 298.1 ± 0.1 K in thermostatted cells. The setup consisted of a Metrohm model 888 Titrando apparatus controlled by Metrohm TiAMO 1.2 software equipped with a combined gel electrode (VWR model 662 1759). Estimated precision was 0.2 mV and 0.003 ml for the electromotive force and titrant volume readings, respectively. All the potentiometric titrations were carried out under magnetic stirring and bubbling purified presaturated N2 through the solution to exclude O2 and CO2.
(§2) A 30 ml solution containing each ligand ([L] = 5 – 10 mM), NaCl and HCl was titrated with standard NaOH solutions. For the zinc(II)/ligand systems, the titrant solutions consisted of different amounts of ligand ([L] = 5 − 10 mM), zinc(II) ([Zn] = 0.5—5 mM) and a suitable amount of HCl and NaCl. All the measurements were carried out with an excess of the ligand, with respect to zinc(II) and at different zinc(II):ligand molar ratios. The selection of ratios investigated was determined by simulating titrations using Hyperquad Simulation and Speciation computer software (HySS)[41]. [Zn] and [L] were negligible compared to the background electrolyte concentrations. […] To account for the influence of zinc(II) hydrolysis in the zinc(II)/ligand systems, zinc(II) titrations were carried out separately at each ionic strength to determine the hydroxide constants so that these constants could be included in the equilibrium model used to refine the titration data. In these titrations, the zinc(II) concentration in the analyte solution was 0.7 mM.
(§3) Before each experiment, independent titrations of strong acid solutions with standard base were carried out under the same medium and ionic strength conditions as the systems to be investigated, with the aim of determining the electrode potential (E^0’) using GLEE software. In this way, the pH scale used was the […], pH = -log [H]^+, where [H]^+ is the free proton concentration. For each titration, approximately 80 to 100 data points were collected. The equilibrium state during titrations was checked by confirming the time required to reach equilibrium.
(§4) The software program Hyperquad was used to determine the equilibrium model and to calculate pKa and stability constants from the potentiometric data set[43]. For each set of pKa constants or zinc(II):ligand ratio studied, at least two repeat titrations were performed. The titration curves for each system were treated as a single set when refining the stability constants. This meant that the refinement procedure was run on both curves at the same time to derive a single set of constants. The error reported on the stability constants is the standard deviation given in the Hyperquad output file. Examples of Hyperquad files for the zinc(II)/PYR system are provided on the Zenodo repository (https://doi.org/10.5281/zenodo.4641710).
(§5) The ionic strength dependence of the stability constants was studied with the modified version of the Extended Debye–Hückel equation[28]. The Monte Carlo method, as described by Hu et al.[43], was used to estimate 95% confidence intervals on the parameters of ionic strength dependence; for each species, predicted stability constants were resampled using an inverse of the cumulative normal distribution function to give sets of simulated data from which the unknown parameters were optimized. An example Excel calculation file for the application of the modified version of the Extended Debye–Hückel equation to the zinc(II)/PYR system (including the calculation of error on parameters of ionic strength dependence) has been uploaded to the Zenodo repository (https://doi.org/10.5281/zenodo.4641710).
(§6) To quantify the improvement of using a direct vs. indirect method for studying ionic strength dependence, the Davies equation (Eq. 3) was applied to the zinc(II)/PYR data. Speciation calculations for a [Zn] = 10^–6 M and [L] = 10^–5 M system at infinite dilution were conducted with the aid of HySS. […]

[2] = Ligand protonation constants, potentiometric titration in NaCl; type: physicochemical
Experimental: as §1, §2, §3, §4, §5, §6

[3] = Davies equation on 0.05 M NaCl data
[4] = Davies equation on 0.15 M NaCl data
[5] = Davies equation on 0.30 M NaCl data
[6] = Davies equation on 0.70 M NaCl data
[7] = Davies equation on 1.00 M NaCl data
[8] = intrinsic, modified Extended Debye–Hückel fit (direct), T = 298.1 K
[9] = parameter of ionic strength dependence, NaCl
[10] = parameter of ionic strength dependence, NaCl, T = 298.1 K

decrease in the 1:1 zinc(II) stability constant ([1]; between 0.00 and 1.00 M NaCl): 20% | decrease of the 1:1 zinc(II) stability constant ([1]; between 0.00 and 1.00 M NaCl): 1.67 logβ units | log β, 2H+ + L = H2L ([2]; 0.05 M NaCl, T = 298.1 K): 21.36 ± 0.07 | log β, H+ + L = HL ([2]; 0.05 M NaCl, T = 298.1 K): 12.16 ± 0.03 | log β, 2H+ + L = H2L ([2]; 0.15 M NaCl, T = 298.1 K): 21.14 ± 0.02 | log β, H+ + L = HL ([2]; 0.15 M NaCl, T = 298.1 K): 11.97 ± 0.01 | log β, 2H+ + L = H2L ([2]; 0.30 M NaCl, T = 298.1 K): 21.06 ± 0.02 | log β, H+ + L = HL ([2]; 0.30 M NaCl, T = 298.1 K): 11.94 ± .01 | log β, 2H+ + L = H2L ([2]; 0.70 M NaCl, T = 298.1 K): 21.04 ± 0.02 | log β, H+ + L = HL ([2]; 0.70 M NaCl, T = 298.1 K): 11.96 ± 0.01 | log β, 2H+ + L = H2L ([2]; 1.00 M NaCl, T = 298.1 K): 20.88 ± 0.02 | log β, H+ + L = HL ([2]; 1.00 M NaCl, T = 298.1 K): 11.79 ± 0.01 | log β0 (indirect), H2L [2, 3]: 21.61±0.07 | log β0 (indirect), HL- [2, 3]: 12.50±0.03 | log β0 (indirect), H2L [2, 4]: 21.48±0.02 | log β0 (indirect), HL- [2, 4]: 12.45±0.01 | log β0 (indirect), H2L [2, 5]: 21.45±0.02 | log β0 (indirect), HL- [2, 5]: 12.48±0.01 | log β0 (indirect), H2L [2, 6]: 21.4±0.02 | log β0 (indirect), HL- [2, 6]: 12.46±0.01 | log β0 (indirect), H2L [2, 7]: 21.18 ±0.02 | log β0 (indirect), HL- [2, 7]: 12.20±0.01 | logβ^0, 2H+ + L = H2L [2, 8]: 21.87±0.001 and 21.874 ± 0.001 | logβ^0, H+ + L = HL [2, 8]: 12.49 ±0.009 and 12.489 ± 0.009 | C, 2H+ + L = H2L [2, 10]: 0.296 ± 0.001 | C, H+ + L = HL [2, 10]: 0.183 ± 0.015
SMILES: Oc1ccccc1O [PYR, pyrocatecholate]
log β, Zn2+ + 2L = ZnL2 ([1]; 0.05 M NaCl, T = 298.1 K): 16.66±0.04 | log β, Zn2+ + L = ZnL (1:1) ([1]; 0.05 M NaCl, T = 298.1 K): 9.29±0.03 | log β, Zn2+ + 2L = ZnL2 ([1]; 0.15 M NaCl, T = 298.1 K): 15.93±0.02 | log β, Zn2+ + L = ZnL (1:1) ([1]; 0.15 M NaCl, T = 298.1 K): 8.89±0.02 | log β, Zn2+ + 2L = ZnL2 ([1]; 0.30 M NaCl, T = 298.1 K): 15.32±0.01 | log β, Zn2+ + L = ZnL (1:1) ([1]; 0.30 M NaCl, T = 298.1 K): 8.57±0.01 | log β, Zn2+ + 2L = ZnL2 ([1]; 0.70 M NaCl, T = 298.1 K): 15.09±0.01 | log β, Zn2+ + L = ZnL (1:1) ([1]; 0.70 M NaCl, T = 298.1 K): 8.50±0.01 | log β, Zn2+ + 2L = ZnL2 ([1]; 1.00 M NaCl, T = 298.1 K): 14.59±0.01 | log β, Zn2+ + L = ZnL (1:1) ([1]; 1.00 M NaCl, T = 298.1 K): 8.23±0.01 | log β0 (indirect), ZnL [1, 3]: 9.97±0.03 and 9.97 | log β0 (indirect), ZnL22- [1, 3]: 16.54±0.04 and 16.54 | log β0 (indirect), ZnL [1, 4]: 9.85±0.02 and 9.85 | log β0 (indirect), ZnL22- [1, 4]: 15.70±0.02 and 15.70 | log β0 (indirect), ZnL [1, 5]: 9.65±0.01 and 9.65 | log β0 (indirect), ZnL22- [1, 5]: 15.03±0.01 and 15.03 | log β0 (indirect), ZnL [1, 6]: 9.50±0.01 and 9.50 | log β0 (indirect), ZnL22- [1, 6]: 14.84±0.01 and 14.84 | log β0 (indirect), ZnL [1, 7]: 9.05 ±01 and 9.05 | log β0 (indirect), ZnL22- [1, 7]: 14.42±0.01 and 14.42 | logβ0, Zn2+ + 2L = ZnL2 [1, 8]: 17.136±0.007 and 17.14±0.007 and 17.14 | logβ0, Zn2+ + L = ZnL (1:1) [1, 8]: 9.90±0.001 and 9.90 | C, Zn2+ + 2L = ZnL2 [1, 9]: -0.924±0.012

stability of the 1:1 zinc(II) species below/above the equivalent PYR and GLY complexes ([1]; 1:1 zinc(II) complex): 3.5–4 logβ units | decrease of the 1:1 zinc(II) stability constant ([1]; between 0.00 and 1.00 M NaCl): 0.79 logβ units | decrease of the 1:1 zinc(II) stability constant ([1]; between 0.05 and 1.00 M NaCl): 14% | log β, H+ + L = HL ([2]; 0.05 M NaCl, T = 298.1 K): 9.28 ± 0.01 | log β, H+ + L = HL ([2]; 0.15 M NaCl, T = 298.1 K): 9.06 ± 0.01 | log β, H+ + L = HL ([2]; 0.30 M NaCl, T = 298.1 K): 9.10 ± 0.01 | log β, H+ + L = HL ([2]; 0.70 M NaCl, T = 298.1 K): 9.04 ± 0.01 | log β, H+ + L = HL ([2]; 1.00 M NaCl, T = 298.1 K): 9.07 ± 0.01 | logβ^0, H+ + L = HL [2, 8]: 9.376 ± 0.001 | C, H+ + L = HL [2, 10]: 0.085 ± 0.001
SMILES: CC(=O)NO [AHA, acetohydroxamic acid]
log β, Zn2+ + 2L = ZnL2 ([1]; 0.05 M NaCl, T = 298.1 K): 9.60±0.01 | log β, Zn2+ + 2OH- + L- = ZnOH2L- ([1]; 0.05 M NaCl, T = 298.1 K): -13.60±0.04 | log β, Zn2+ + L = ZnL (1:1) ([1]; 0.05 M NaCl, T = 298.1 K): 5.32±0.01 | log β, Zn2+ + OH- + L- = ZnOHL ([1]; 0.05 M NaCl, T = 298.1 K): -3.22±0.04 | log β, Zn2+ + 2L = ZnL2 ([1]; 0.15 M NaCl, T = 298.1 K): 9.16±0.01 | log β, Zn2+ + 2OH- + L- = ZnOH2L- ([1]; 0.15 M NaCl, T = 298.1 K): -13.65±0.01 | log β, Zn2+ + L = ZnL (1:1) ([1]; 0.15 M NaCl, T = 298.1 K): 5.10±0.01 | log β, Zn2+ + OH- + L- = ZnOHL ([1]; 0.15 M NaCl, T = 298.1 K): -3.64±0.02 | log β, Zn2+ + 2L = ZnL2 ([1]; 0.30 M NaCl, T = 298.1 K): 9.11±0.01 | log β, Zn2+ + 2OH- + L- = ZnOH2L- ([1]; 0.30 M NaCl, T = 298.1 K): -13.21±0.07 | log β, Zn2+ + L = ZnL (1:1) ([1]; 0.30 M NaCl, T = 298.1 K): 5.01±0.03 | log β, Zn2+ + OH- + L- = ZnOHL ([1]; 0.30 M NaCl, T = 298.1 K): -4.22±0.08 | log β, Zn2+ + 2L = ZnL2 ([1]; 0.70 M NaCl, T = 298.1 K): 8.79±0.01 | log β, Zn2+ + 2OH- + L- = ZnOH2L- ([1]; 0.70 M NaCl, T = 298.1 K): -14.07±0.02 | log β, Zn2+ + L = ZnL (1:1) ([1]; 0.70 M NaCl, T = 298.1 K): 4.87±0.01 | log β, Zn2+ + OH- + L- = ZnOHL ([1]; 0.70 M NaCl, T = 298.1 K): -4.07±0.02 | log β, Zn2+ + 2L = ZnL2 ([1]; 1.00 M NaCl, T = 298.1 K): 8.79±0.01 | log β, Zn2+ + 2OH- + L- = ZnOH2L- ([1]; 1.00 M NaCl, T = 298.1 K): -13.96±0.01 | log β, Zn2+ + L = ZnL (1:1) ([1]; 1.00 M NaCl, T = 298.1 K): 4.82±0.01 | log β, Zn2+ + OH- + L- = ZnOHL ([1]; 1.00 M NaCl, T = 298.1 K): -4.41±0.04 | logβ0, Zn2+ + 2L = ZnL2 [1, 8]: 10.021±0.001 | C, Zn2+ + 2L = ZnL2 [1, 9]: -0.052±0.002 | C, Zn2+ + 2OH- + L- = ZnOH2L- [1, 9]: 0.571±0.017 | C, Zn2+ + OH- + L- = ZnOHL [1, 9]: 1.2095±0.027
